Series [1] relates to SGC7901 subcutaneous xenograft. Kind of series: Live NIR fluorescence imaging in subcutaneous gastric cancer xenograft model. The series is classed as in vivo, athymic nude mice. An excerpt: All mice were fed irradiated alfalfa-free rodent diet (Envigo Teklad, Madison, WI) to reduce background in stomach and gut for one week prior to the imaging experiments. The mice models were used for in vivo imaging and surgical procedures when xenograft diameter reached 5 to 10 mm.

The subject of series [2] is tumor vascular epithelial cells (CD31). The series can be described thus: Fluorescence microscopy co-localisation of probe with CD31 in resected tumor sections. To be noted: frozen sections of resected samples, FITC-labeled anti-mouse CD31, confocal fluorescence microscopic examination. The method, then: Resected samples were embedded in optimum cutting temperature (OCT) compound (Leica, Germany), and 10μm-thick frozen tissue sections were cut on a cryostat microtome (Leica, Germany). The sections were fixed immediately with precooled isoacetone for 30min and stored at –20 °C. Hematoxylin and Eosin (H&E) staining was used for histological analysis. Tumor margins defined by H&E staining and NIR fluorescence were compared. All slides were scanned by using Pannoramic-250 Flash II slide-scanner (3D-Histech, Budapest, Hungary) and analyzed by Case viewer software (3D-Histech, Budapest, Hungary). Mouse tumor vascular endothelial cells were stained by FITC-labeled rat anti-mouse CD31 (89C2) antibody (CST, Boston, USA). Fluorescence microscopy was used to validate the colocalization of (GEBP11)2-ACP-Cy5.5 probe and tumor microvessel. Fluorescence microscopic images were acquired at 100x magnification by using Echo Revolve upside-down integrated fluorescence microscope (ECHO, USA).

The subject of the next series is SGC7901 cells. Kind of series: In vitro binding of Cy5.5 labeled GEBP11 probes, confocal fluorescence. The series is classed as cell-based, human. To be noted: 1μM probe, 6h, 37°C, laser scanning confocal microscope. The procedure: (§1) SGC7901 cells and HUVECs were cocultured as previously described ([18]). Co- HUVECs (co-cultured HUVECs), HUVECs and SGC7901 cells were harvested at log-growth phase and characterized by bench top fluorescent microscopy. Cells were incubated with 1μM GEBP11-Cy5.5 or (GEBP11)2-ACP-Cy5.5 for 6h at 37°C in a humidified atmosphere with 5% CO2. Binding affinity of the probes to cultured cells were detected by laser scanning confocal microscope (FV3000, Olympus, Japan). Nucleus were re-stained with ProLong™ Gold Antifade Mountant with DAPI (Invitrogen, USA) at room temperature. For binding specificity assessment, cells were pretreated with 25μM unlabeled GEBP11 for 30min at 37°C before incubating with the labeled probes.

The subject of the next series is HUVECs. Described as above. The series is classed as cell-based, human. To be noted: 1μM probe, 6h, 37°C, laser scanning confocal microscope. The method, then: as §1
In series [3] the test system is SGC7901-Luc orthotopic gastric cancer xenograft. Kind of series: Real-time NIR fluorescence imaging-guided resection. The series is classed as in vivo, athymic nude mice. As to conditions: surgery 24h after probe injection, checked by BLI. The method, then: Orthotopic gastric cancer xenograft mice were anesthetized with a ketamine/xylazine mixture via intraperitoneal injection 24h after injection of (GEBP11)2-ACP-Cy5.5 probe. Real-time NIR fluorescence imaging was used to guide the removal of the primary cancer lesion and potential metastatic lesions. After resection, all surgical specimens and surgical beds were examined by NIR fluorescence imaging to confirm complete resection. To compare the efficacy of the dimer GEBP11 NIR imaging, BLI imaging pictures were taken before and after resection, the findings of BLI imaging were kept blind to the researcher who performed the surgery.

The subject of series [4] is Co-HUVECs (HUVECs co-cultured with SGC7901 cells). The series can be described thus: In vitro binding of Cy5.5 labeled GEBP11 probes, confocal fluorescence, with competitive inhibition by unlabeled GEBP11. The format is cell-based, human. As to conditions: 1μM probe, 6h, 37°C. The method, then: as §1
Series [5] concerns SGC7901-Luc orthotopic gastric cancer xenograft. The series can be described thus: Live NIR fluorescence imaging in orthotopic gastric cancer xenograft model. The procedure:
All animal experiments were conducted in compliance with protocols approved by the Institute of Animal Use Committee of Air Force Medical University. All gastric cancer xenograft models were established in 6–8 week old female athymic nude mice. The SGC7901-Luc or SGC7901-GFP cell suspension at a concentration of 2 × 10^6 cells/mL was prepared. For subcutaneous xenograft model, SGC7901-GFP cells suspension (100μL/mouse) were injected subcutaneously into the right upper limb (for in vivo binding affinity test) or lower flank of mouse (for in vivo biodistribution assay). The orthotopic gastric cancer xenograft models were established as described previously ([21]), In brief, open abdominal surgery was performed on the mice under general anesthesia, SGC7901-Luc cells suspension (100μL/mouse) were injected into the subserosa layer of the stomach.
Tumor growth was monitored by Caliper IVIS Lumina II (PerkinElmer, MA, USA). GFP fluorescence imaging was performed in subcutaneous xenograft model. Bioluminescence imaging (BLI) was performed to monitor tumor growth in the orthotopic xenograft models. Because of its higher penetrability and sensitivity, peritoneal metastasis can be visualized clearly as well. Before BLI was acquired, mice were injected with D-luciferin (150 mg/kg) by intraperitoneal injection and anesthetized with 2% isoflurane. Living Image software 4.7.3 (IVIS) was used to quantify bioluminescence signals.
Xenograft mice were injected with 200 ul GEBP11-Cy5.5, (GEBP11)2-ACP-Cy5.5 or free Cy5.5 (5 µM in PBS) via tail veins. Live NIR fluorescence imaging was performed at different time points. NIR Fluorescence intensity was quantified by region-of-interest (ROI) measurement using Living Image software 4.7.3 (IVIS).

A short description of series [6]: Ex vivo biodistribution of NIR signal in tumor and main organs. Also noted: species or system athymic nude mice. To be noted: mouse, in vivo, iv, 200 ul of 5 uM probe in PBS per mouse; ex vivo NIR signal, kidney relative to muscle, 24 h post-injection, n=3, bar label of Figure 3C. The method, then: (§2) Subcutaneous tumor xenograft models were used to detect the biodistribution of NIR signals. Mice were euthanized at 24h after injection of the labeled probes or free Cy5.5. All assays were done in triplicates. Then tumor xenografts and main organs (heart, lung, kidney, bone, muscle, brain, spleen, liver, skin and intestines) were harvested. Living Image version 4.7.3 Software (IVIS) was used to quantify the NIR fluorescence intensity at selected ROIs. All ROI data were collected after subtracting background autofluorescence. Differences in the fluorescence intensities of the ROIs between different probes were statistically analyzed.

For series [7], the system named is SGC7901 subcutaneous xenograft. The description is as above. As to conditions: tumors and major organs harvested at 24h after injection. Details: species or system athymic nude mice. The method, then:
as §2

Where a SMILES comes first, the peptide text is derived from it. Bridges are numbered along the chain shown (N, C = ends). [ ]: non-standard residue; d: D form. The star is where a group is joined. X1 = CC[N+]1=C(C=CC=CC=C2N(CCCCCC(=O)*)c3ccc4c(S(=O)(=O)O)cc(S(=O)(=O)O)cc4c3C2(C)C)C(C)(C)c2c1ccc1c(S(=O)(=O)O)cc(S(=O)(=O)[O-])cc21; Ahx = NCCCCCC(=O)O

These results are taken from PMC9730820, “Near-infrared-dye labeled tumor vascular-targeted dimer GEBP11 peptide for image-guided surgery in gastric cancer” (Frontiers in Oncology, 2022).

As for `CC[N+]1=C(C=CC=CC=C2N(CCCCCC(=O)N[C@H]3CSSC[C@@H](C(=O)NCCCCCC(=O)N[C@H]4CSSC[C@@H](C(=O)O)NC(=O)[C@H](CCSC)NC(=O)[C@H](CC(C)C)NC(=O)[C@H](Cc5ccc(O)cc5)NC(=O)[C@H](CO)NC(=O)[C@H](CC(N)=O)NC(=O)[C@H](CCCCN)NC(=O)[C@H]([C@@H](C)O)NC4=O)NC(=O)[C@H](CCSC)NC(=O)[C@H](CC(C)C)NC(=O)[C@H](Cc4ccc(O)cc4)NC(=O)[C@H](CO)NC(=O)[C@H](CC(N)=O)NC(=O)[C@H](CCCCN)NC(=O)[C@H]([C@@H](C)O)NC3=O)c3ccc4c(S(=O)(=O)O)cc(S(=O)(=O)O)cc4c3C2(C)C)C(C)(C)c2c1ccc1c(S(=O)(=O)O)cc(S(=O)(=O)[O-])cc21` [(GEBP11)2-ACP-Cy5.5] (X1-CTKNSYLMC[Ahx]CTKNSYLMC-OH; disulfide 1-9, 11-19; N-terminus and C-terminus assumed), in series [1] (200 ul of 5 µM probe in PBS via tail vein, observed 0-96 h, IVIS ROI), the “Time at which NIR fluorescence signal at the tumor site peaked” value is reported as 24 h. For the same compound, the “Co-localisation of probe fluorescence with CD31” value in series [2] was “co-localize with CD31”. For the same compound, the “Fluorescence signal on SGC7901 after incubation with probe” value in the series on SGC7901 cells is on record as “only scarce signal”. In addition, the “Fluorescence signal on HUVECs after incubation with probe” value in the series with HUVECs was “only scarce signal”. For the same compound, the “Residual cancer lesion after NIR-guided resection” value in [3] is reported as “No residual cancer lesion could be detected”. Also, the “Signal intensity compared with the mono probe” value in series [4] (confocal microscope) is “much higher signal intensity than GEBP11-Cy5.5”. Also, the “Fluorescence signal on Co-HUVECs after incubation with probe” value in series [4] (laser scanning confocal microscope) is “strong fluorescence signal”. Further, in [5] (200 ul of 5 µM probe via tail vein, IVIS ROI), the “Time at which signal intensity at the tumor site peaked” value turned out to be 24 h. The “NIR fluorescence signal at the tumor sites at 6h compared with GEBP11-Cy5.5 or free Cy5.5” value in series [5] (6h after injection) is recorded as “stronger NIR fluorescence signal”. Further, the tissue to tissue ratio at 24 h in [6] is 1.41. Besides, in [7], the “Distribution of the NIR probe in tumor and organs, ex vivo fluorescence imaging” value is on record as “Significant enrichment”.

On to `CCN1\C(=C/C=C/C=C/C2=[N+](CCCCCC(=O)O)c3ccc4c(S(=O)(=O)O)cc(S(=O)(=O)O)cc4c3C2(C)C)C(C)(C)c2c1ccc1c(S(=O)(=O)[O-])cc(S(=O)(=O)O)cc21` [Free Cy5.5, Cy5.5, reference compound], for which the “NIR signal at the tumor sites and site of accumulation, live imaging” value in series [1] (200 ul of 5 µM in PBS via tail vein) is “accumulated mainly in the kidneys, and no significant signal was detected at the tumor sites”. The “Course of signal intensity at the tumor site” value in series [5] (200 ul of 5 µM via tail vein) is given as “dropped rapidly after 6h”. The “Distribution of the NIR probe in tumor and organs, ex vivo fluorescence imaging” value in series [7] is reported as “found in the kidney, without enrichment in the tumor”.
